Assay results from patent publication US9958439B2, “Carbohydrate detection” (RICHTER LIFE SCIENCE DEVELOPMENT AB, priority 2012, dated 2018).
Read-outs that look alike come from different tables or passages of the source.

Assays:
[1] = for RFU change (Correlation analysis): probe-specific excitation λ, emission 545 nm; for carbohydrate can be detected and/or differentiated by the LCO: conclusion from change in signal magnitude and/or shift in λmax; for Gradient Parameters (gradient of regression line) / Linear relationship / Quality of Gradient: linear regression
Description: 3 μM of each probe was applied to serial two fold dilutions of the carbohydrate of which the concentration shown here are 5 mg/ml (_.), 2.5 mg/ml (. . . ), 1.25 mg/ml (__) and 0 mg/ml (_). The excitation spectrum of the probe was analyzed for wavelengths 300-500 nm with emission read at 545 nm.
(§1) 3 μM of each probe was applied to serial two fold dilutions of the carbohydrate. Respective probes were excited at wavelengths unique to each probe (specified in figure), and emission was read at 545 nm.
(§2) Serial dilutions of carbohydrate suspensions were prepared in dH2O. Concentrations ranging from 10 to 0.039 mg/ml was used for β-1,3-glucan, cellulose and chitin, whereas 5 to 0.019 mg/ml was used for sodium alginate, glucose, amylose, glycogen, cellulobiose, heparin, chondroitin sulfate A. 3 μM of each LCO probe was added to 1 ml aliquots of each concentration of carbohydrate, after which 100 μl was dispensed in triplicates into 96 well plates. Excitation spectra were collected by exciting the sample from 300 to 500 nm and detecting emission at 545 nm. Detection of carbohydrate is concluded when there is a reproducible change in λmax and/or RFU intensity with reference to the negative control. Data from three concentrations, as well as the negative control are shown for each carbohydrate as specified in respective figure.
(§3) The excitation wavelength (emission detected at 545 nm) selected for each LCO is either (1) the λmax, or (2) the excitation wavelength which suffers the lowest background. A linear regression analysis is performed to determine the relationship between the carbohydrate concentration and RFU.

[2] = Description: (§4) 3 μM of each probe was applied to serial two fold dilutions of the carbohydrate of which the concentration shown here are 5 mg/ml (_.), 2.5 mg/ml (. . . ) 1.25 mg/ml (__) and 0 mg/ml (_). The excitation spectrum of the probe was analyzed for wavelengths 300-500 nm with emission read at 545 nm.
3 μM of each probe was applied to serial two fold dilutions of the carbohydrate. Respective probes were excited at wavelengths unique to each probe (specified in figure), and emission was read at 545 nm. […] The mean increase in signal (_) with [Glucose] and the fitted regression line (__) is shown.
as §2, §3

[3] = for RFU change (Correlation analysis): probe-specific excitation λ, emission 545 nm; for Gradient Parameters (gradient of regression line) / Quality of Gradient: linear regression
Description: as §4, §1, §2, §3

[4] = remark: listed apart in the source
Description: (§5) The excitation spectrum of the probe was analyzed for wavelengths 300-500 nm with emission read at 545 nm.
as §1, §2, §3

[5] = remark: listed apart in the source
Description: 3 μM of each probe was applied to serial two fold dilutions of the insoluble carbohydrate of which the concentration shown here are 5 mg/ml (_.), 2.5 mg/ml (. . . ), 1.25 mg/ml (__) and 0 mg/ml (_). The excitation spectrum of the probe was analyzed for wavelengths 300-500 nm with emission read at 545 nm.
(§6) 3 μM of each probe was applied to serial two fold dilutions of the insoluble carbohydrate. Respective probes were excited at wavelengths unique to each probe (specified in figure), and emission was read at 545 nm.
as §2, §3

[6] = for RFU change (Correlation analysis) / RFU change (Signal deviation with increasing [Carbohydrate]) / λmax change: 3 μM probe; for RFU change (Correlation analysis): probe-specific excitation λ, emission 545 nm; for RFU change (Signal deviation with increasing [Carbohydrate]) / λmax change: spectral analysis, Excitation 300-500, Emission 545; for carbohydrate can be detected and/or differentiated by the LCO: conclusion from change in signal magnitude and/or shift in λmax; for Gradient Parameters (gradient of regression line) / Linear relationship / Quality of Gradient: linear regression
Description: as §5, §6, §2, §3

[7] = Glycogen 5-0.019 mg/ml, 3 μM probe, spectral analysis, Excitation 300-500, Emission 545
[8] = glucose concentration vs RFU, linear regression
[9] = Cellulobiose 5-0.019 mg/ml, 3 μM probe, spectral analysis, Excitation 300-500, Emission 545
[10] = cellulobiose concentration vs RFU
[11] = Chondroitin Sulfate A 5-0.019 mg/ml, 3 μM probe, spectral analysis, Excitation 300-500, Emission 545
[12] = Chondroitin Sulfate A concentration vs RFU, linear regression
[13] = sodium alginate concentration vs RFU, linear regression
[14] = β-1,3-glucan concentration vs RFU

Cl.Cl.N=C(N)NCCC[C@H](NC(=O)Cc1cc(-c2cccs2)sc1-c1ccc(-c2sc(-c3cccs3)cc2CC(=O)N[C@@H](CCCNC(=N)N)C(=O)O)s1)C(=O)O [pHTA-Arg, penta Hydrogen Thiophene Acetic acid Arginine]
RFU change (Correlation analysis) ([1]; Glycogen 5-0.019 mg/ml, 3 μM probe): Increases
RFU change (Signal deviation with increasing [Carbohydrate]) [1, 7]: Increases
λmax change [1, 7]: Redshift
carbohydrate can be detected and/or differentiated by the LCO ([1]; Glycogen): can be detected and/or differentiated
RFU change (Correlation analysis) ([1]; Heparin 5-0.019 mg/ml, 3 μM probe): Increases
RFU change (Signal deviation with increasing [Carbohydrate]) ([1]; Heparin 5-0.019 mg/ml, 3 μM probe, spectral analysis, Excitation 300-500, Emission 545): Increases
carbohydrate can be detected and/or differentiated by the LCO ([1]; Heparin): can be detected and/or differentiated
Gradient Parameters (gradient of regression line) ([1]; glycogen concentration vs RFU): 72.8 ± 13.4
Linear relationship ([1]; glycogen concentration vs RFU): Significant
Quality of Gradient ([1]; glycogen concentration vs RFU): Positive
Gradient Parameters (gradient of regression line) ([1]; heparin concentration vs RFU): 29.3 ± 8.6
Linear relationship ([1]; heparin concentration vs RFU): Significant
Quality of Gradient ([1]; heparin concentration vs RFU): Positive
Sensitivity ([1]; to glycogen): Yes
Sensitivity ([1]; to heparin): Yes
RFU change (Correlation analysis) ([2]; Glucose 5-0.019 mg/ml, 3 μM probe, probe-specific excitation λ, emission 545 nm): Unclear
RFU change (Signal deviation with increasing [Carbohydrate]) ([2]; Glucose 5-0.019 mg/ml, 3 μM probe, spectral analysis, Excitation 300-500, Emission 545): Increases
Gradient Parameters (gradient of regression line) [2, 8]: 17.9 ± 38.1
Quality of Gradient [2, 8]: Horizontal
Sensitivity ([2]; to glucose): No
RFU change (Correlation analysis) ([3]; Amylose 5-0.019 mg/ml, 3 μM probe): Unclear
RFU change (Signal deviation with increasing [Carbohydrate]) ([3]; Amylose 5-0.019 mg/ml, 3 μM probe, spectral analysis, Excitation 300-500, Emission 545): Unclear
RFU change (Correlation analysis) ([3]; Cellulobiose 5-0.019 mg/ml, 3 μM probe): Unclear
RFU change (Signal deviation with increasing [Carbohydrate]) [3, 9]: Unclear
λmax change [3, 9]: No change
Gradient Parameters (gradient of regression line) ([3]; amylose concentration vs RFU): −28.4 ± 21.6
Quality of Gradient ([3]; amylose concentration vs RFU): Horizontal
Gradient Parameters (gradient of regression line) [3, 10]: −1.30 ± 12.9
Quality of Gradient [3, 10]: Horizontal
Sensitivity ([3]; to amylose): No
Sensitivity ([3]; to cellulobiose): No
RFU change (Correlation analysis) ([4]; Chondroitin Sulfate A 5-0.019 mg/ml, 3 μM probe, probe-specific excitation λ, emission 545 nm): Increases
RFU change (Signal deviation with increasing [Carbohydrate]) [4, 11]: Increases
λmax change [4, 11]: No change
Gradient Parameters (gradient of regression line) [4, 12]: 143.4 ± 10.01
Linear relationship [4, 12]: Significant
Quality of Gradient [4, 12]: Positive
carbohydrate can be detected and/or differentiated by the LCO ([4]; Chondroitin sulfate A, conclusion from change in signal magnitude and/or shift in λmax): can be detected and/or differentiated
Sensitivity ([4]; to Chondroitin Sulfate A): Yes
RFU change (Correlation analysis) ([5]; Sodium alginate 5-0.019 mg/ml, 3 μM probe, probe-specific excitation λ, emission 545 nm): Increases
RFU change (Signal deviation with increasing [Carbohydrate]) ([5]; Sodium alginate 5-0.019 mg/ml, 3 μM probe, spectral analysis, Excitation 300-500, Emission 545): Increases
carbohydrate can be detected and/or differentiated by the LCO ([5]; Sodium alginate, conclusion from change in signal magnitude and/or shift in λmax): can be detected and/or differentiated
Gradient Parameters (gradient of regression line) [5, 13]: 78.6 ± 18.6
Linear relationship [5, 13]: Significant
Quality of Gradient [5, 13]: Positive
Sensitivity ([5]; to sodium alginate): Yes
RFU change (Correlation analysis) ([6]; Cellulose 10-[…]): Increase
RFU change (Signal deviation with increasing [Carbohydrate]) ([6]; Cellulose 10-[…]): Increase
λmax change ([6]; Cellulose 10-[…]): Redshift
carbohydrate can be detected and/or differentiated by the LCO ([6]; Cellulose): can be detected and/or differentiated
RFU change (Correlation analysis) ([6]; Chitin 10-[…]): Increases
RFU change (Signal deviation with increasing [Carbohydrate]) ([6]; Chitin 10-[…]): Increases
λmax change ([6]; Chitin 10-[…]): Redshift
carbohydrate can be detected and/or differentiated by the LCO ([6]; Chitin): can be detected and/or differentiated
Gradient Parameters (gradient of regression line) ([6]; cellulose concentration vs RFU): 194.0 ± 29.9
Linear relationship ([6]; cellulose concentration vs RFU): Significant
Quality of Gradient ([6]; cellulose concentration vs RFU): Positive
Gradient Parameters (gradient of regression line) ([6]; chitin concentration vs RFU): 338.2 ± 19.4
Linear relationship ([6]; chitin concentration vs RFU): Significant
Quality of Gradient ([6]; chitin concentration vs RFU): Positive
Sensitivity ([6]; to cellulose): Yes
Sensitivity ([6]; to chitin): Yes
Sensitivity ([6]; to β-1,3-glucan): Yes
carbohydrate can be detected and/or differentiated by the LCO ([6]; β-1,3-Glucan): can be detected and/or differentiated
RFU change (Correlation analysis) ([6]; β-1,3-glucan 10-[…]): Increase
RFU change (Signal deviation with increasing [Carbohydrate]) ([6]; β-1,3-glucan 10-[…]): Increase
Gradient Parameters (gradient of regression line) [6, 14]: 119.1 ± 16.69
Quality of Gradient [6, 14]: Positive
